How the values were obtained:
Assay in all cases: relative viability (nuclei count vs DMSO), 5 days (fraction); higher = more cells survive
[1] = test system: NCI-H1437
In short: (§1)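 Lung cancer cell lines in 1536-well plates were dosed by pin tool the day after seeding, either with one drug alone or with a fixed anchor-drug dose plus five library-drug doses (not always all listed) in √10 steps. After 5 days, cells were fixed and their nuclei stained in one step (final 0.05% Triton X-100, 1% formaldehyde, 1 ug/ml Hoechst), then counted on 4× images. Relative viability is the nuclei count in treated wells divided by that in vehicle wells. Values are medians of duplicate plates.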

[2] = test system: HCC-827
In short: as §1

[3] = test system: CAL-12T
In short: as §1

[4] = test system: NCI-H322M
In short: as §1

[5] = test system: NCI-H23
In short: as §1

[6] = test system: LCLC-103H
In short: as §1

[7] = test system: 201T
In short: as §1

[8] = test system: COR-L 105
In short: as §1

[9] = test system: LC-2-ad
In short: as §1

[10] = test system: LK-2
In short: as §1

[11] = test system: NCI-H2228
In short: as §1

[12] = test system: HCC-15
In short: as §1

[13] = test system: UMC-11
In short: as §1

[14] = test system: H3255
In short: as §1

[15] = test system: LXF-289
In short: as §1

[16] = test system: NCI-H2405
In short: as §1

[17] = test system: HARA
In short: as §1

[18] = test system: BEN
In short: as §1

[19] = test system: NCI-H2085
In short: as §1

[20] = test system: RERF-LC-KJ
In short: as §1

[21] = test system: LU99A
In short: as §1

[22] = test system: NCI-H1651
In short: as §1

Cc1cnc(-c2cnc(NCCNc3ccc(C#N)cn3)nc2-c2ccc(Cl)cc2Cl)[nH]1 + COc1cc2c(Oc3ccc(NC(=O)C4(C(=O)Nc5ccc(F)cc5)CC4)cc3F)ccnc2cc1OCCCN1CCOCC1 [Foretinib] (partner 0.25 µM)
relative viability ([1]; first compound 0.08 µM): 1.18
relative viability ([1]; first compound 0.253 µM): 1.25
relative viability ([1]; first compound 0.8 µM): 1.24
relative viability ([1]; first compound 2.53 µM): 1.25
relative viability ([2]; first compound 0.08 µM): 1.04
relative viability ([2]; first compound 0.8 µM): 0.983
relative viability ([2]; first compound 2.53 µM): 0.976
relative viability ([3]; first compound 0.08 µM): 1.07
relative viability ([3]; first compound 0.253 µM): 0.946
relative viability ([3]; first compound 0.8 µM): 1.15
relative viability ([3]; first compound 2.53 µM): 0.979
relative viability ([4]; first compound 0.08 µM): 1.07
relative viability ([4]; first compound 0.253 µM): 0.856
relative viability ([4]; first compound 0.8 µM): 1
relative viability ([4]; first compound 2.53 µM): 1.2
relative viability ([5]; first compound 0.08 µM): 0.938
relative viability ([5]; first compound 0.253 µM): 1
relative viability ([5]; first compound 0.8 µM): 0.983
relative viability ([5]; first compound 2.53 µM): 1
relative viability ([6]; first compound 0.08 µM): 0.751
relative viability ([6]; first compound 0.253 µM): 0.734
relative viability ([6]; first compound 0.8 µM): 0.745
relative viability ([6]; first compound 2.53 µM): 0.79
relative viability ([7]; first compound 0.08 µM): 1.19
relative viability ([7]; first compound 0.253 µM): 0.807
relative viability ([7]; first compound 0.8 µM): 1.16
relative viability ([7]; first compound 2.53 µM): 1.14
relative viability ([8]; first compound 0.08 µM): 0.906
relative viability ([8]; first compound 0.253 µM): 1.03
relative viability ([8]; first compound 0.8 µM): 0.943
relative viability ([8]; first compound 2.53 µM): 0.868
relative viability ([9]; first compound 0.08 µM): 0.996
relative viability ([9]; first compound 0.253 µM): 0.711
relative viability ([9]; first compound 2.53 µM): 1.03
relative viability ([10]; first compound 0.08 µM): 1.6
relative viability ([10]; first compound 0.253 µM): 0.82
relative viability ([10]; first compound 0.8 µM): 0.942
relative viability ([10]; first compound 2.53 µM): 1.21
relative viability ([11]; first compound 0.08 µM): 0.954
relative viability ([11]; first compound 0.253 µM): 0.761
relative viability ([11]; first compound 0.8 µM): 0.898
relative viability ([11]; first compound 2.53 µM): 0.589
relative viability ([12]; first compound 0.08 µM): 1.12
relative viability ([12]; first compound 0.253 µM): 0.895
relative viability ([12]; first compound 0.8 µM): 1.02
relative viability ([12]; first compound 2.53 µM): 0.941
relative viability ([13]; first compound 0.08 µM): 0.986
relative viability ([13]; first compound 0.253 µM): 0.999
relative viability ([13]; first compound 0.8 µM): 1.11
relative viability ([13]; first compound 2.53 µM): 1
relative viability ([14]; first compound 0.08 µM): 0.956
relative viability ([14]; first compound 0.253 µM): 0.696
relative viability ([14]; first compound 0.8 µM): 0.988
relative viability ([14]; first compound 2.53 µM): 0.841
relative viability ([15]; first compound 0.08 µM): 1.03
relative viability ([15]; first compound 0.253 µM): 0.858
relative viability ([15]; first compound 0.8 µM): 0.994
relative viability ([15]; first compound 2.53 µM): 1.02
relative viability ([16]; first compound 0.08 µM): 1.04
relative viability ([16]; first compound 0.253 µM): 0.974
relative viability ([16]; first compound 0.8 µM): 1.05
relative viability ([16]; first compound 2.53 µM): 0.845
relative viability ([17]; first compound 0.08 µM): 1
relative viability ([17]; first compound 0.253 µM): 0.773
relative viability ([17]; first compound 0.8 µM): 0.818
relative viability ([17]; first compound 2.53 µM): 0.877
relative viability ([18]; first compound 0.08 µM): 0.857
relative viability ([18]; first compound 0.253 µM): 0.68
relative viability ([18]; first compound 0.8 µM): 0.746
relative viability ([18]; first compound 2.53 µM): 0.69
relative viability ([19]; first compound 0.08 µM): 0.989
relative viability ([19]; first compound 0.253 µM): 0.88
relative viability ([19]; first compound 0.8 µM): 0.762
relative viability ([19]; first compound 2.53 µM): 0.937
relative viability ([20]; first compound 0.08 µM): 0.906
relative viability ([20]; first compound 0.253 µM): 0.796
relative viability ([20]; first compound 0.8 µM): 0.826
relative viability ([20]; first compound 2.53 µM): 0.832
relative viability ([21]; first compound 0.08 µM): 0.908
relative viability ([21]; first compound 0.253 µM): 0.701
relative viability ([21]; first compound 0.8 µM): 0.83
relative viability ([21]; first compound 2.53 µM): 0.765
relative viability ([22]; first compound 0.08 µM): 0.728
relative viability ([22]; first compound 0.253 µM): 0.777
relative viability ([22]; first compound 0.8 µM): 0.785
relative viability ([22]; first compound 2.53 µM): 0.883

Reference: the supplement of paper PMC10307832
